Source: patent US20100087374A1, “Methods for Treatment and Diagnosis of Pulmonary Diseases Based on the Expression of SERCA2 Protein” (priority 2008, published 2010)

How the values were obtained:
[1] = tested on: IL-8 and GM-CSF release; experiment: Ozone-mediated cytokine release with extracellular nucleotide supplementation; format: cell-based, human
Experimental: Ozone-mediated cytokine release was studied in polarized air-liquid interface cultures of non-CF and CF cell lines. 16HBEo- and CF4lo- cells were cultured on collagen coated 30 mm inserts. Once cells were polarized (8-10 days in culture) cells were exposed to 0, 100 or 200 ppb ozone with 200 μl media on the apical surface. At the end of exposure (18 h) additional 200 μl media was added to the apical surface. Aliquots were collected after 4 h and analyzed for the cytokine as described before. […] Apical media was collected and analyzed for IL-8 and GM-CSF.

[2] = tested on: Primary human bronchial epithelial cells; experiment: Ozone-mediated extracellular ATP release with CFTRinh172; format: cell-based; settings: 20 μM for 30 min, then 200 ppb ozone 30 min
Experimental: (§1) Exposure of airway epithelial cells to ozone at precise levels was carried out in a computer controlled in vitro exposure chamber as described previously (78). Primary human bronchial epithelial cells cultured on collagen-coated 6-well plates were treated with 20 μM CFTRinh172 for 30 min and then exposed to either 0 ppb (−) or 200 ppb (+) ozone. ATP content of the extracellular media was analyzed after 30 min and cell death was estimated after 8 h of ozone exposure as described in the Methods. The data shown is a representative of 3 experiments (n=6). The bars represent means (SEM) of data and * indicates significant difference (p<0.05) from 0 ppb (− ozone) controls and # indicates significant difference (p<0.05) from 200 ppb exposed cells without CFTRinh172.

[3] = tested on: SERCA2 protein; experiment: SERCA2 protein expression by Western blot after CFTRinh172 treatment; format: cell-based, human; settings: 20 μM, 24 h
[4] = tested on: primary human bronchial epithelial (HBE), C-38 and IB3-1 cells; experiment: Cytotoxicity of 24 h CFTRinh172 incubation; format: cell-based; settings: 20 μM
[5] = tested on: Primary human bronchial epithelial cells; experiment: Cell death after ozone exposure with CFTRinh172; format: cell-based; settings: 20 μM
Experimental: For assessing ozone toxicity, primary human airway epithelial cells were transfected either with a control or SERCA2 siRNA for 24 h and exposed to 0 ppb or 200 ppb ozone for 18 h. Following exposure, cells were analyzed for cell death using Vybrant apoptosis assay kit (Molecular Probes, Eugene, Oreg.), as described before (63). In this method, apoptotic cells bearing phosphatidylserine in the plasma membrane outer leaflet were identified as those binding Alexa Fluor 488-labeled annexin V and necrotic cells as those binding fluorescent DNA-binding dye SYTOX Green. The Alexa Fluor-488 labeled annexin-positive apoptotic and Sytox green-positive dead cells were quantified by flow cytometry. The columns represent means of data and * indicates significant difference (p<0.05) from 0 ppb controls cells. # indicates significant difference from 200 ppb controls (n=3). This experiment was repeated 4 times.
as §1, with “The data shown is a representative of 3 experiments (n=6). The bars represent means (SEM) of data and * indicates significant difference (p<0.05) from 0 ppb (− ozone) controls and # indicates significant difference (p<0.05) from 200 ppb exposed cells without CFTRinh172.” left out

[6] = tested on: IL-8 release; experiment: Ozone-mediated IL-8 release with NF-κB inhibitor preincubation; format: cell-based, human; settings: CF cells; 10 μM preincubation 30 min; ozone 18 h
Experimental: Ozone-mediated cytokine release was studied in polarized air-liquid interface cultures of non-CF and CF cell lines. 16HBEo- and CF4lo- cells were cultured on collagen coated 30 mm inserts. Once cells were polarized (8-10 days in culture) cells were exposed to 0, 100 or 200 ppb ozone with 200 μl media on the apical surface. At the end of exposure (18 h) additional 200 μl media was added to the apical surface. Aliquots were collected after 4 h and analyzed for the cytokine as described before.
Results are shown in FIG. 18; IL-8 (18A), G-CSF (18B) or GM-CSF (18C). Values are means±SE; n=6, and the figure is a representative of 4 individual experiments; * Significant difference from 0 ppb control, P<0.05 and # Significant difference from non-CF, P<0.05. Effect of preincubation of cells for 30 min with 10 μM [6-amino-4-(4-phenoxyphenylethylamino)quinazoline] For analysis of NF-κB activation, nuclear p65 was measured in non-CF and CF cells after exposure to ozone (E). As described above, cells were harvested and nuclear lysates were prepared after exposure to 200 ppb ozone. The cellular fractions were assessed for p65. Values are means±SE; n=6 and the data is a representative of 2 individual experiments; * Significant difference from 0 ppb control, P<0.05 and # Significant difference from non-CF, P<0.05.

[7] = tested on: IL-8 release; experiment: IL-8 release after thapsigargin preincubation and ozone; format: cell-based, human; settings: primary airway epithelial cells
Experimental: Primary airway epithelial cells were cultured on collagen coated 6-well plates. Cells were preincubated with 2 μM thapsigargin for 30 min and then exposed to 200 ppb ozone for 18 h. The supernatant media was collected and analyzed for cytokines as described before. Values are means±SE; n=6 and the data is a representative of 2 individual experiments; * Significant difference from 0 ppb control, P<0.05 and # Significant difference from ozone exposed untreated cells, P<0.05.

[8] = CF45o- cells, 10 μM preincubation 30 min, ozone 200 ppb, 18 h

Nc1ncnc2c1ncn2[C@@H]1O[C@H](COP(=O)(O)OP(=O)(O)OP(=O)(O)O)[C@@H](O)[C@H]1O [ATP]
GM-CSF release [1, 8]: enhanced | IL-8 release [1, 8]: enhanced

O=C(O)c1ccc(/C=C2\SC(=S)N(c3cccc(C(F)(F)F)c3)C2=O)cc1 [CFTRinh172]
Ozone-mediated release of ATP [2]: completely abolished | SERCA2 expression ([3]; parent CF cell line IB3-1): did not cause a further decrease | SERCA2 protein levels ([3]; primary human bronchial epithelial (HBE) cells, air-liquid interface): significant decrease | SERCA2 protein levels ([3]; wt-CFTR-corrected C-38 cells): significant decrease | cytotoxicity [4]: did not cause cytotoxicity | cytotoxicity of inhibitor itself ([5]; 0 ppb ozone): negligible cytotoxicity | cell death in ozone ([5]; 200 ppb ozone 8 h): further enhanced the cell death

Nc1ccc2ncnc(NCCc3ccc(Oc4ccccc4)cc3)c2c1 [NF-kB inhibitor, 6-amino-4-(4-phenoxyphenylethylamino)quinazoline]
IL-8 levels in ozone [6]: drop to control values

C/C=C(/C)C(=O)O[C@H]1C(C)=C2[C@H]([C@@H]1OC(=O)CCCCCCC)[C@@](C)(OC(C)=O)C[C@H](OC(=O)CCC)[C@@]1(O)[C@H]2OC(=O)[C@@]1(C)O [Thapsigargin, thapsigargin]
ozone mediated IL-8 release ([7]; 2 μM for 30 min, then 200 ppb ozone 18 h): further augmented | IL-8 release ([7]; 2 μM, control, 0 ppb exposed cells): enhanced

O=c1ccn([C@@H]2O[C@H](COP(=O)(O)OP(=O)(O)OP(=O)(O)O)[C@@H](O)[C@H]2O)c(=O)[nH]1 [UTP]
ozone-mediated cytokine release ([1]; CF cells, data not shown): enhanced
